From PubChem BioAssay AID1996
≈ marks a conversion by molar mass, not a printed value.

Details: buffer; pH 7.4; 200.0 µM

Row | solubility kinetic | Structure (SMILES)
1 | 3.4 µg/mL (≈ 8.98 µM) | CCOC(=O)c1sc(=S)n(C)c1NC(=O)c1ccc(C(C)(C)C)cc1
2 | 43.6 µg/mL (≈ 126 µM) | CCOc1ccccc1NS(=O)(=O)c1ccc2oc(=O)ccc2c1
3 | 44.1 µg/mL | Cl.OC(COCc1ccccc1F)CN1CCCCC1 (stereo not drawn)
4 | 48.8 µg/mL (≈ 146 µM) | O=C(NCCN1CCOCC1)C1CC(=O)N(c2ccc(F)cc2)C1 (stereo not drawn)
5 | 0.4 µg/mL (≈ 1.12 µM) | CCOC(=O)c1cc(-c2csc(-c3ccc(C(C)(C)C)cc3)n2)on1
6 | 42.5 µg/mL (≈ 139 µM) | CCCc1c(C)nc2c(OC)cccc2c1SCC(=O)O
7 | < 0.7 µg/mL | CC(=O)c1c(C)oc2ccc(NS(=O)(=O)c3ccccc3)cc12
8 | > 56.2 µg/mL | O=C(O)c1ccccc1C(=O)Nc1nc(-c2ccc3ccccc3c2)cs1
9 | > 47 µg/mL | N#Cc1cccc(S(=O)(=O)NCc2nnc3ccccn23)c1
10 | 42.7 µg/mL (≈ 145 µM) | CCOC(=O)C1=C(C)NC(=O)NC1c1ccc([N+](=O)[O-])o1 (stereo not drawn)
11 | 7.9 µg/mL (≈ 26.7 µM) | C=CCOc1ccc(CNc2ccc3[nH]c(=O)[nH]c3c2)cc1
12 | 9.5 µg/mL (≈ 32.7 µM) | O=C(/C(=C(\O)c1ccccc1)c1ncc[nH]1)c1ccccc1
13 | > 56.9 µg/mL | Nc1nc(SCC(=O)N2CCCC2)[nH]c(=O)c1NC(=O)c1cccs1
14 | < 0.2 µg/mL | CCN(CC)c1ccc(NC(=S)NC(=O)c2cccs2)cc1
15 | 42.1 µg/mL (≈ 137 µM) | O=C(COC(=O)c1cccnc1)Nc1cccc2ccccc12
16 | 2.1 µg/mL (≈ 6.49 µM) | Nc1c(C(=O)N2CCCC2)sc2nc(-c3ccccc3)ccc12
17 | > 51.2 µg/mL | COc1ccc(S(=O)(=O)N2CC(C)N(C(=O)N(C)C)C2C)cc1 (stereo not drawn)
18 | 15.4 µg/mL (≈ 58.5 µM) | CC(C)c1ccc(N=C2N=C(N)c3ccccc32)cc1
19 | 1.8 µg/mL (≈ 5.51 µM) | CNc1nc(-c2ccc(OC)cc2)c(-c2ccc(OC)cc2)s1
20 | 11.7 µg/mL (≈ 39.3 µM) | CSc1ccccc1C(=O)NC1CCCc2ccccc21 (stereo not drawn)
21 | > 44 µg/mL | CCc1cc2c(SCC(=O)NC3CC3)ncnc2s1
22 | 42.4 µg/mL (≈ 137 µM) | CCN1CCN(c2oc(/C=C/c3ccccc3)nc2C#N)CC1
23 | 12.8 µg/mL (≈ 39.7 µM) | Cc1cccc(NC(=O)c2ccc(-c3ccccc3[N+](=O)[O-])o2)c1
24 | > 42.8 µg/mL | COc1cc(CCC(C)NCc2ccccc2)ccc1O (stereo not drawn)

Row | solubility kinetic | Structure (SMILES)
25 | 8.3 µg/mL (≈ 24.5 µM) | COC(=O)c1ccc(CSc2nc(C(F)F)cc(C)c2C#N)o1
26 | 13.3 µg/mL (≈ 48.5 µM) | O=C(OCC(=O)c1ccc[nH]1)c1ccc([N+](=O)[O-])cc1
27 | > 54.4 µg/mL | O=C(CCC(=O)OCC(=O)c1cccc([N+](=O)[O-])c1)NC1CCCCC1
28 | < 0.5 µg/mL | O=C(Nc1ccccc1Cl)OC1CCCCC1
29 | > 36.3 µg/mL | COc1ccccc1CNC(=O)c1cccnc1
30 | 9.5 µg/mL (≈ 31.7 µM) | O=C(NCc1ccncc1)C(=O)Nc1ccc2c(c1)OCO2
31 | 9.8 µg/mL (≈ 33.2 µM) | COc1ccccc1CNC(=O)c1oc2ccccc2c1C
32 | 1.9 µg/mL (≈ 5.53 µM) | Clc1ccc(-c2nc3ccccn3c2CN2CCSCC2)cc1
33 | 32.3 µg/mL (≈ 115 µM) | Cc1cc(=O)[nH]c(SCC(=O)NC2CCCCC2)n1
34 | 44.4 µg/mL (≈ 130 µM) | O=C(O)c1cc(NC(=O)c2ccco2)cc(NC(=O)c2ccco2)c1
35 | > 51.5 µg/mL | CC1CCN(C(=O)COC(=O)c2nn(C)c(=O)c3ccccc23)CC1
36 | 25.8 µg/mL (≈ 91.1 µM) | COc1ccc(-c2nc(-c3cccnc3)no2)cc1OC
37 | < 0.6 µg/mL | Cc1ccccc1-c1nc2cc(Cl)ccc2c(=O)o1
38 | > 49.1 µg/mL | Cc1ccccc1-n1ccnc1SCC(=O)NCc1ccco1
39 | > 38.5 µg/mL | S=C(NCc1cccs1)NCC1CCCO1 (stereo not drawn)
40 | 44.5 µg/mL (≈ 144 µM) | Clc1nc(CN2CCOCC2)nc2sc3c(c12)CCC3
41 | > 59 µg/mL | Cc1cccc(N2CC(C(=O)Nc3ccc(N4CCOCC4)cc3)CC2=O)c1C (stereo not drawn)
42 | > 40.7 µg/mL | COc1ccc(C(=O)O/N=C(\N)c2ccccn2)cc1
43 | > 48.5 µg/mL | CCn1cc(S(=O)(=O)Nc2cc(C(=O)OC)ccc2C)cn1
44 | > 50.2 µg/mL | Cc1ccc(S(=O)(=O)NCCN2CCOCC2)c(C)c1.Cl
45 | > 45.7 µg/mL | CCC1CCCCN1C(=O)CSc1nc2ncccc2[nH]1 (stereo not drawn)
46 | < 0.3 µg/mL | Cc1ccc(NC(=O)CSc2nc3sc(C)cc3c(=O)n2C)cc1
47 | 1.4 µg/mL (≈ 5.06 µM) | O=C(c1cc(-c2ccc(Cl)cc2)on1)N1CCCC1
48 | 38.3 µg/mL (≈ 111 µM) | CC(NCC(O)c1ccc([N+](=O)[O-])cc1)C12CC3CC(CC(C3)C1)C2 (stereo not drawn)

Row | solubility kinetic | Structure (SMILES)
49 | > 34.7 µg/mL | Cn1c(Nc2ccccc2)cc(=O)n(C)c1=O
50 | > 54.9 µg/mL | CC(=O)Nc1sc2c(c1C(N)=O)CCN(Cc1ccccc1)C2.Cl
51 | < 0.4 µg/mL | Cc1c(C(=O)Nc2cccnc2)oc2ccc(Br)cc12
52 | > 43.3 µg/mL | CN(C)C=Nc1ccc2nc3c(cc2c1)[nH]c1ccccc13
53 | 20.5 µg/mL (≈ 79 µM) | CCOc1ccc2[nH]cc(-c3csc(N)n3)c2c1
54 | 22.9 µg/mL (≈ 69.3 µM) | CC1(CCBr)C(=O)N(c2ccccc2)c2ccccc21 (stereo not drawn)
55 | 10 µg/mL (≈ 31.4 µM) | CC(Cc1ccccc1)NC(=O)c1cc([N+](=O)[O-])ccc1Cl (stereo not drawn)
56 | > 44.7 µg/mL | COc1ccc(C(=O)CCN2CCC(C)CC2)cc1.Cl
57 | 2.8 µg/mL (≈ 13.5 µM) | Nc1cc(N2CCCC2)ccc1[N+](=O)[O-]
58 | 25.6 µg/mL (≈ 85.8 µM) | Cc1sc(N2C(=O)C3C(C2=O)[C@H]2C=C[C@@H]3C2)c(C#N)c1C (stereo partly drawn)
59 | 31.8 µg/mL (≈ 92.6 µM) | Cc1ccc(NCC(O)Cn2cnc3c2c(=O)n(C)c(=O)n3C)cc1 (stereo not drawn)
60 | 5.3 µg/mL (≈ 20.6 µM) | CCc1ccc(NC(=O)CCc2ccc(C)o2)cc1
61 | > 51.2 µg/mL | CC(C)n1c(C(F)(F)F)nc2cc(C(=O)N3CCOCC3)ccc21
62 | 44.9 µg/mL (≈ 150 µM) | O=C(O)c1ccc(Nc2ccc3nonc3c2[N+](=O)[O-])cc1
63 | < 0.3 µg/mL | CCOC(=O)c1sc(=NC(=O)c2ccc(C)cc2)n(C)c1C
64 | 0.7 µg/mL (≈ 1.97 µM) | COc1ccc(-c2csc(NC(=O)Cc3ccccc3)n2)cc1OC
65 | > 48.5 µg/mL | Cc1cccc(C(=O)NCC(=O)N2CC(=O)Nc3ccccc32)c1
66 | 13.8 µg/mL (≈ 52.2 µM) | N#C/C(=C\c1ccncc1)c1ccc(NC(N)=O)cc1
67 | 0.6 µg/mL (≈ 1.96 µM) | Cn1cc(C(=O)C(=O)NCCc2ccccc2)c2ccccc21
68 | 1.2 µg/mL (≈ 3.7 µM) | Cc1cccc(C)c1OCC(=O)Nc1ccc2c(c1)C(=O)NC2=O
69 | > 48.4 µg/mL | NC(=O)C1CCN(C(=O)Cc2ccc(-c3ccccc3)cc2)CC1
70 | > 35.4 µg/mL | COc1ccc(OCc2csc(N)n2)cc1
71 | 9.8 µg/mL (≈ 38.2 µM) | CC(C)CC(=O)Nc1ccc([N+](=O)[O-])cc1Cl
72 | 4.4 µg/mL (≈ 11.6 µM) | O=C(Nc1cccc(S(=O)(=O)N2CCCCC2)c1)c1ccc(Cl)nc1

Row | solubility kinetic | Structure (SMILES)
73 | > 46 µg/mL | N#CCCN(Cc1ccccc1)S(=O)(=O)c1cccs1
74 | > 48.7 µg/mL | CC(C)C(NS(=O)(=O)c1ccccc1)C(=O)NC1CCCC1 (stereo not drawn)
75 | 41.4 µg/mL (≈ 127 µM) | O=C(NC1CCCc2ccccc21)C12CC3CC(CC(O)(C3)C1)C2 (stereo not drawn)
76 | 3.1 µg/mL (≈ 8.57 µM) | CC(NC(=S)Nc1ccccc1)C(c1cccs1)N1CCOCC1 (stereo not drawn)
77 | 34.8 µg/mL (≈ 125 µM) | O=C(NCCCn1ccnc1)c1ccc2ccccc2c1
78 | > 47.9 µg/mL | CCNC(=O)CC1C(=O)N(c2ccccc2)C(=O)N1CCOC (stereo not drawn)
79 | 41.6 µg/mL | COC(=O)c1ccc2c(c1)C(C)(C)C(/C=C/c1ccc(O)cc1)=[N+]2C.[I-]
80 | 7.6 µg/mL (≈ 27.4 µM) | Cc1ccc(COC(=O)c2ccc3ccccc3n2)cc1
81 | 45.8 µg/mL (≈ 139 µM) | Cc1ccc(N2CC(C(=O)Nc3cccnc3)CC2=O)cc1Cl (stereo not drawn)
82 | > 59.8 µg/mL | Cn1nc(C(=O)NCC(c2cccs2)N2CCOCC2)c2ccccc2c1=O (stereo not drawn)
83 | < 0.3 µg/mL | C=CCn1c(=S)[nH]c2cc(-c3ccccc3)sc2c1=O
84 | 47.6 µg/mL (≈ 139 µM) | COc1cccc(NC(=O)N2CCCC2C(=O)NCc2ccco2)c1 (stereo not drawn)
85 | 1.9 µg/mL (≈ 5.78 µM) | COc1ccc(NC(=S)N2CCc3ccccc3C2)cc1OC
86 | 5.3 µg/mL (≈ 15.4 µM) | COc1cc(C(F)(F)F)c(C(=O)NCc2cccc(Cl)c2)cn1
87 | 35.2 µg/mL (≈ 110 µM) | CCN1CCN(CCC(=O)Nc2cc(OC)cc(OC)c2)CC1
88 | 39.4 µg/mL (≈ 118 µM) | O=C1CC(Nc2cc(=O)[nH]c(=O)[nH]2)C(=O)N1c1ccccc1Cl (stereo not drawn)
89 | 33 µg/mL (≈ 97.5 µM) | CCN(CC)S(=O)(=O)c1cccc(NC(=O)CC2CCCC2)c1
90 | 35.3 µg/mL (≈ 121 µM) | Cc1ccn2c(NC3CCCC3)c(-c3ccncc3)nc2c1
91 | > 35 µg/mL | COc1ccccc1CNC(=O)C1CCCC1
92 | 0.7 µg/mL (≈ 2.27 µM) | O=C(Nc1ccc2c(c1)OCO2)C(=O)c1c[nH]c2ccccc12
93 | 64.7 µg/mL (≈ 147 µM) | COC(=O)c1cc(CNC(=O)C2CC(=O)N(c3ccc4c(c3)OCCO4)C2)ccc1OC (stereo not drawn)
94 | > 58.5 µg/mL | O=C(OCC(=O)N1CCOCC1)c1ccccc1OCc1ccc(Cl)cc1
95 | 34.8 µg/mL (≈ 133 µM) | O=C(NC1CCCCC1)c1ccc2c(c1)OCCO2
96 | > 51.5 µg/mL | Cc1ccccc1NC(=O)C1CCN(C(=O)NC2CCCCC2)CC1

Row | solubility kinetic | Structure (SMILES)
97 | > 48.8 µg/mL | CC(C)NC(=O)COC(=O)c1ccccc1C(=O)c1ccccc1
98 | 4.8 µg/mL (≈ 18.2 µM) | O=C(Cc1ccc([N+](=O)[O-])cc1)Nc1nccs1
99 | 25.8 µg/mL (≈ 68 µM) | O=C(Nc1cccc(S(=O)(=O)NC2=NCCC2)c1)c1ccc(F)cc1F
100 | > 40.2 µg/mL | CCOC(=O)c1sc(=NC(=O)C2CC2)n(C)c1C
101 | 5.8 µg/mL (≈ 15.3 µM) | COc1ccc(S(=O)(=O)N2CCN(c3ccccn3)CC2)cc1[N+](=O)[O-]
102 | < 0.7 µg/mL | O=C1/C(=C\c2ccc(O)cc2)SC(=S)N1Cc1ccccc1
103 | < 0.2 µg/mL | CCSc1ncc(Cl)c(C(=O)Nc2ccccc2OC)n1
104 | > 46.9 µg/mL | Cc1ccc(OCC(=O)N2CCN(S(C)(=O)=O)CC2)cc1
105 | 30 µg/mL (≈ 135 µM) | CC1(C)N=c2ccc([N+](=O)[O-])c(N)c2=[N+]1[O-]
106 | > 49.6 µg/mL | S=C(Nc1ccc2c(c1)OCCO2)Nc1ccc2c(c1)OCO2
107 | > 42.2 µg/mL | COc1ccc(CN2C(=O)CSCC2=O)cc1OC
108 | 6.4 µg/mL (≈ 19.9 µM) | NC(=O)COc1ccc(C(=O)/C=C2/C(=O)Nc3ccccc32)cc1
109 | > 65.3 µg/mL | COCC(=O)Nc1ccc(N2CCOCC2)c(S(=O)(=O)Nc2ccc(OC)cc2)c1
110 | > 60.4 µg/mL | CN(C)c1cccc(C(=O)Nc2ccc(S(=O)(=O)Nc3nccs3)cc2)c1
111 | 39.7 µg/mL (≈ 145 µM) | O=C(NC(O)C(=O)c1ccccc1)c1ccc(F)cc1 (stereo not drawn)
112 | 6.6 µg/mL (≈ 17.8 µM) | N#Cc1ccccc1NC(=O)COc1ccccc1C(=O)Nc1ccccc1
113 | 21.4 µg/mL (≈ 60.6 µM) | O=C(COC(=O)c1ccc(Cl)nc1)NCCc1ccc(Cl)cc1
114 | 8 µg/mL (≈ 29.7 µM) | CN1C(=O)/C(=C/C=C2\SCCN2C)N(C)C1=S
115 | 23.4 µg/mL (≈ 113 µM) | Cc1ccc(N=C2CSC(=O)N2)cc1
116 | 0.4 µg/mL (≈ 1.34 µM) | O=[N+]([O-])c1ncccc1OCc1ccc(Cl)c(Cl)c1

Row | Structure (SMILES) | solubility kinetic
117 | O=C(O)CC[N+](=O)[O-] | > 17.9 µg/mL
118 | O=[N+]([O-])/C=C1\NCCN1Cc1ccc(Cl)nc1 | 35.8 µg/mL (≈ 141 µM)
